# Publication PMC9668969 (Nature Communications, 2022)
# Several values for one entry are separate records, joined by “and”; a condition that tells them apart may be missing. Equal values may be shown once.
# Tests used:
# ELIC = settings: cited from earlier work
# WT ELIC = assay: Asymmetric liposome stopped-flow Tl+ flux assay (no exchange vs exchange, 25 mol% outer leaflet POPG); type: biochemical, Erwinia chrysanthemi; set-up: key to Tl+ flux quenching rate, Avg. / Tl+ flux quenching rate: Tl+ influx rate kt at 2 ms from stretched-exponential fit (Eq. 2b); settings: for Tl+ flux quenching rate, Avg. / Tl+ flux quenching rate: No-exchange: WT in 3:1 PC:PE with just beta-CD, 10 mM propylamine; for Tl+ flux quenching rate: single experiments
# Procedure: The fluorescence sequential-mixing stopped-flow liposomal flux measurements were carried using an SX20 stopped-flow spectrofluorometer (Applied Photophysics) and Pro-Data SX software[13],[30]. 7.5 mg of the respective lipid mixture (POPC, 1:1 POPC: POPE, 1:1 POPC:POPG, 3:1 POPC:POPE, 3:1 POPC:POPG, 2:1:1 POPC:POPE:POPG) was dried in a glass vial to a thin film under a constant stream of N2. The lipids were then further dried under vacuum in a desiccator overnight. The following day the lipids were hydrated in 500 µl of reconstitution buffer (100 mM NaNO3, 10 mM HEPES, pH 7) (Buffer R), 250 µl of 75 mM 8-Aminonaphthalene-1,3,6-Trisulfonic Acid (ANTS, ThermoFisher Scientific) in buffer R, and doped with ~18 mg of CHAPS (Anatrace). The mixture was vortexed and then sonicated with heat until completely solubilized. Following the sonication, the solution was brought to RT then 3.5 µl of 6.7 mg/ml ELIC in Buffer A with 0.02% DDM was added (3 µg per mg of lipid). This combined solution was incubated at RT for 30 min, followed by the addition of 1 ml of 1:1 v/v SM-2 BioBeads in Buffer R and an additional 250 µl of 75 mM ANTS in Buffer R. This mixture was incubated at RT for 2.5 hr with gentle mixing. The liposome suspension was then extruded with an Avanti mini-extruder and 0.1 µm membrane (30×). The extruded liposomes were stored at 13 °C overnight with gentle rotation. The next day, the liposomes were diluted to 2.5 mL using assay buffer (140 mM NaNO3, 10 mM HEPES, pH 7) (Stopped-flow Buffer A), loaded into a PD-10 desalting column (Cytiva), eluted with 3 mL of Stopped-flow Buffer A and subsequently diluted 5-fold with Stopped-flow Buffer A.
# Using propylamine as the agonist, the assay and analysis was carried out as previously described[13],[30]. ELIC-containing liposomes were first mixed 1:1 with Buffer A containing 2× the concentration of propylamine. After a variable delay of 10 ms to 25 s, the sample was then mixed 1:1 with a quenching buffer (90 mM NaNO3, 50 mM TlNO3, 10 mM HEPES, pH 7), and ANTS fluorescence (ex. 360 nm, fluorescence above 420 nm) was recorded for 1 s. For each delay time, 5 repeat measurements were obtained. The data were collected using Applied Photophysics Pro-Data SX software. The fluorescence quenching traces were fit to a stretched exponential (Eq. 2a) and the rate of Tl^+ influx was determined at 2 ms (Eq. 2b).2a Ft=F∞+F0−F∞⋅e^−t/τ^β 2b kt=β/τ⋅2ms/τ^(β−1) where Ft, F∞, F0 are the fluorescence at time t, final fluorescence and initial fluorescence. τ is the time constant, β the stretched exponential factor, and kt the calculated rate of Tl^+ influx at 2 ms. The time course of desensitization was also fit to a double exponential and a weighted time constant was calculated as was done for the patch-clamp data using Origin 2019b. All replicates were taken from independent samples.
# Acceptor liposomes were prepared as described in the Stopped-flow fluorescence recordings section until completion of the extrusion step. The preparation was scaled up 2x to produce samples for the no-exchange and exchange conditions. After extrusion and storage of the liposomes overnight at 13 °C, the double liposome preparation was split into two equal volume aliquots of ~1.5 ml. Using the excel spreadsheet provided by Markones et al.[44], donor POPG and methyl-β-cyclodextrin (MβCD, Sigma) concentrations and volumes were calculated to produce an outer leaflet POPG content of 25 mol% in the liposomes. The calculations assumed a ~6.66 mM lipid concentration and 1.5 mL volume of the acceptor liposome solution[44]. A MβCD-POPG (50% saturation of MβCD by POPG) solution was formed by combining 224 µL 7.5 mM POPG in Stopped-flow Buffer A, 650 µl 300 mM MβCD in Stopped-flow Buffer A, and 126 µL Stopped-flow Buffer A, which was then mixed at 50 °C and 1000 RPM for 20 min using an Eppendorf thermomixer. […]
compound,measurement,setting,value
"CC/C=C\C/C=C\C/C=C\C/C=C\C/C=C\C/C=C\CCC(=O)O [DHA, docosahexaenoic acid]",effect on ELIC agonist response,ELIC,decreases peak agonist response and increases desensitization
methyl-β-cyclodextrin,"Tl+ flux quenching rate, Avg.",WT ELIC; delay 0.01 s,12.9647
same,"Tl+ flux quenching rate, Avg.",WT ELIC; delay 0.025 s,13.7625
same,"Tl+ flux quenching rate, Avg.",WT ELIC; delay 0.05 s,18.86
same,"Tl+ flux quenching rate, Avg.",WT ELIC; delay 0.1 s,31.5581
same,"Tl+ flux quenching rate, Avg.",WT ELIC; delay 0.25 s,29.5756
same,"Tl+ flux quenching rate, Avg.",WT ELIC; delay 0.5 s,31.8845
same,"Tl+ flux quenching rate, Avg.",WT ELIC; delay 1 s,34.9406
same,"Tl+ flux quenching rate, Avg.",WT ELIC; delay 2.5 s,21.2322
same,"Tl+ flux quenching rate, Avg.",WT ELIC; delay 5 s,10.788
same,"Tl+ flux quenching rate, Avg.",WT ELIC; delay 10 s,2.374
same,"Tl+ flux quenching rate, Avg.",WT ELIC; delay 25 s,1.305
same,effect on ELIC responses,"WT ELIC; methyl-β-cyclodextrin alone, 3:1 POPC:POPE liposomes",did not alter ELIC responses
same,Tl+ flux quenching rate,WT ELIC; delay 0.025 s,9.097 and 18.0228 and 11.9906 and 15.9401
same,Tl+ flux quenching rate,WT ELIC; delay 0.25 s,35.4461 and 38.8846 and 20.2406 and 23.7309
same,Tl+ flux quenching rate,WT ELIC; delay 2.5 s,25.1548 and 26.3221 and 15.7795 and 17.6721
same,Tl+ flux quenching rate,WT ELIC; delay 5 s,10.4577 and 9.241 and 15.1687 and 8.284
cardiolipin,effect on ELIC,ELIC,positively modulates ELIC
